The subject of test [1] is osteoporosis model rats (ovariectomized aged rats). Kind of test: Bone regeneration in osteoporosis model rats (ovariectomized aged rats). The test is classed as in vivo, rat. Particulars: calcitriol dissolved with vitamin D3 receptor carrier protein; i.v. 3 times per week, 0.3 μg/kg; four months later. The procedure:
The resultant was allowed to stand still overnight at 22° C. and eluted with a solution A as in the case of Example 1. The eluate was introduced into a benzamidine column (GE Healthcare Bioscience; HiTrap Benzamidine FF (high sub) column) in a general purification step, during which a high-purity vitamin D3 receptor protein was purified. Accordingly, a drug carrier was obtained.
The obtained liquid was administered 3 times per week via intravenous injection to osteoporosis model rats (ovariectomized aged rats) such that the calcitriol concentration was maintained at 0.3 μg/kg.

Test [2] concerns the target T1, human vitamin D3 receptor (His-tag fusion protein) (Homo sapiens, UniProt P11473).
T1 construct: made in house; host or cells: Escherichia coli BL21 (DE3) Codon-plus, vector pQE30 Xa (QIAGEN)
T1 sequence (P11473 1-427): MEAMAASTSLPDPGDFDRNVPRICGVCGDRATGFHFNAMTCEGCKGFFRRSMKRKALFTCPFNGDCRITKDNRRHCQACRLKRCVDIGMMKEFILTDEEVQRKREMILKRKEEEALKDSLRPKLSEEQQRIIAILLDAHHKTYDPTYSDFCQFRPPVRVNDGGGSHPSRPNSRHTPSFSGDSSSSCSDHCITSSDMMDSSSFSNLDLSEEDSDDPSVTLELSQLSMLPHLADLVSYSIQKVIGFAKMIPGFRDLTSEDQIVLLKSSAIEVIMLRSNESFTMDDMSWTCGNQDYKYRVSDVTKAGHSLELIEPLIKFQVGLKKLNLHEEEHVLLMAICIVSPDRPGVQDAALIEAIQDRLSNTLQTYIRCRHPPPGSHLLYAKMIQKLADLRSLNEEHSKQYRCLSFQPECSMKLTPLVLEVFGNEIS
Kind of test: Elution by human serum of vitamin D3 bound to His-tag fusion vitamin D3 receptor protein immobilised on Ni-column, HPLC quantification. The test is classed as binding. Particulars: carrier His-tag fusion vitamin D3 receptor protein on Ni-column; 20 ml human serum then 10 ml solution A at 0.1 ml/min. The procedure: (§1) For culture, an LB (Luria-Bertani) medium containing 100 μg/ml ampicillin was used. Preculture was carried out with the use of a 300-mL LB medium contained in a 500-mL Erlenmeyer flask at 37° C. Then, for main culture, 30 mL of the preculture solution was added to a 1.5-L LB medium (containing 100 μg/ml ampicillin) contained in a 3-L baffled Erlenmeyer flask and subjected to shake culture at 37° C. so as to result in 0.6 OD600. Thereafter, IPTG was added thereto to a final concentration of 0.5 mM for expression induction, followed by overnight shake culture at 30° C. Subsequently, cells were collected by centrifugation and washed. The obtained bacterial cells were suspended in 200 mM NaCl, 50 mM sodium phosphate buffer, and 10 mM imidazole (pH 8.0), followed by ultrasonic disintegration for 5 minutes and centrifugation at 44,200×g for 30 minutes. Thus, the supernatant was obtained. The obtained supernatant was introduced at a flow rate of 0.1 ml/min into an Ni-column (Ni-NTA His-Bind Resin: Novagen; column volume: 50 ml) that had been preliminarily equilibrated with a solution A (300 mM NaCl, 50 mM sodium phosphate buffer, 20 mM imidazole, pH 8.0) for immobilization. […]

In test [3] the target is T2, human albumin (His-tag fusion protein) (Homo sapiens, UniProt P02768).
T2 construct: made in house; host or cells: Escherichia coli BL21 (DE3) Codon-plus, vector pQE30 Xa (QIAGEN)
Kind of test: Elution by human serum of vitamin D3 bound to His-tag fusion albumin immobilised on Ni-column, HPLC quantification (Comparative Example 1). The test is classed as binding. Conditions: carrier His-tag fusion albumin on Ni-column; human serum 20 ml at 0.1 ml/min, then buffer. Here is the method:
as §1, with “A human albumin sequence was expressed with the use of Escherichia coli BL21 (DE3) Codon-plus as a His-tag fusion protein (using a vector (pQE30 Xa; QIAGEN)). For” for “For”

T2 sequence (P02768 25-609): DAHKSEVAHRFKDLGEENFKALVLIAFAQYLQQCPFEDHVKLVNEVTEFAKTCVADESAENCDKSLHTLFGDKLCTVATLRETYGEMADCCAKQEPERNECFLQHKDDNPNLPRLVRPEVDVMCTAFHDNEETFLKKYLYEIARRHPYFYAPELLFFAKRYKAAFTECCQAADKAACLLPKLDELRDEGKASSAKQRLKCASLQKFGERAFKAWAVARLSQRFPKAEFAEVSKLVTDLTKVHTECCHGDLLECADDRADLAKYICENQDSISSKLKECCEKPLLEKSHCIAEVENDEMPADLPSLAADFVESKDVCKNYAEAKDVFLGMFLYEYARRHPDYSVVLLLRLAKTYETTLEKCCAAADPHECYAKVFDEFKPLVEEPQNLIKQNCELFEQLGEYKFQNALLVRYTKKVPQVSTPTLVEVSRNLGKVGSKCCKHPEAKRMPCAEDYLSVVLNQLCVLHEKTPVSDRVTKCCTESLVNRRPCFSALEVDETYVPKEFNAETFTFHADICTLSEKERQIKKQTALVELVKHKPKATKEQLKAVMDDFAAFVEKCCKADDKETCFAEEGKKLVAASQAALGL

As for `C=C1/C(=C\C=C2/CCC[C@]3(C)[C@@H]([C@H](C)CCCC(C)(C)O)CC[C@@H]23)C[C@@H](O)C[C@@H]1O` [calcitriol, 1α,25-dihydroxyvitamin D3], the “induction of bone regeneration” value in test [1] is “induction of bone regeneration in the rats was confirmed”.

As for `C=C1CC[C@H](O)C/C1=C/C=C1\CCC[C@]2(C)[C@@H]([C@H](C)CCCC(C)C)CC[C@@H]12` [Vitamin D3, vitamin D3], the “amount of vitamin D3 eluted from the column, of the total amount of bound vitamin” value is on record as “approximately 5%” in test [2] and “approximately 70%” in test [3].

Values taken from US20110009497A1, “DRUG-CONTAINING COMPOSITION” (FUJIFILM CORPORATION, priority 2008, published 2011).
